Test results as given in ChEMBL document CHEMBL1201862, “PubChem BioAssay data set” (2004).
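Method: 48-hour compound exposure of cells in 96-well plates, five concentrations, linear interpolation of endpoints. The concentration for 50% growth inhibition is given as GI50.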 Calls of active or inactive are those of the source. Rule as the data show it: active = GI50 up to about 1.1 µM and inactive = higher.

What was measured:
Test in all cases: NCI-60 cell line screen, 48 h
UACC-257 = test system: UACC-257
HOP-92 = test system: HOP-92
RPMI-8226 = test system: RPMI-8226
SK-MEL-2 = test system: SK-MEL-2
OVCAR-3 = test system: OVCAR-3
MOLT-4 = test system: MOLT-4
DU-145 = test system: DU-145
HCT-116 = test system: HCT-116
MDA-MB-231 = test system: MDA-MB-231
ACHN = test system: ACHN
SF-268 = test system: SF-268
RXF 393 = test system: RXF 393
OVCAR-5 = test system: OVCAR-5
SF-539 = test system: SF-539
NCI-H23 = test system: NCI-H23
KM12 = test system: KM12
A549 = test system: A549
HOP-62 = test system: HOP-62
SW-620 = test system: SW-620
A498 = test system: A498

Row | SMILES | GI50 (UACC-257) | GI50 (HOP-92) | GI50 (RPMI-8226) | GI50 (SK-MEL-2) | GI50 (OVCAR-3) | GI50 (MOLT-4) | GI50 (DU-145) | GI50 (HCT-116) | GI50 (MDA-MB-231) | GI50 (ACHN) | GI50 (SF-268) | GI50 (RXF 393) | GI50 (OVCAR-5) | GI50 (SF-539) | GI50 (NCI-H23) | GI50 (KM12) | GI50 (A549) | GI50 (HOP-62) | GI50 (SW-620) | GI50 (A498)
1 | C/C(=N\N=C(/[SeH])N1CC2CCC(CC2)C1)c1ccccn1 | 0.0112 µM (active) | 0.169 µM (active) | < 0.01 µM (active) | 0.156 µM (active) | 0.0222 µM (active) | 0.014 µM (active) | 0.927 µM (active) | < 0.01 µM (active) | 0.115 µM (active) | 0.215 µM (active) | 0.161 µM (active) | 0.0291 µM (active) | 0.179 µM (active) | 0.251 µM (active) | 0.052 µM (active) | 0.094 µM (active) | 0.0614 µM (active) | 0.341 µM (active) | 0.0139 µM (active) | 0.196 µM (active)
2 | Cc1ncn(-c2ccccc2O)c1C | 34.9 µM (inactive) | > 100 µM (inactive) | > 100 µM (inactive) | > 100 µM (inactive) | > 100 µM (inactive) | > 100 µM (inactive) | > 100 µM (inactive) | > 100 µM (inactive) | > 100 µM (inactive) | > 100 µM (inactive) | > 100 µM (inactive) | > 100 µM (inactive) | > 100 µM (inactive) | > 100 µM (inactive) | > 100 µM (inactive) | > 100 µM (inactive) | > 100 µM (inactive) | > 100 µM (inactive) | > 100 µM (inactive) | > 100 µM (inactive)
3 | CC1Oc2cc3c(-c4c(O)cc(O)c5c(O)c6c(cc45)OC(C)C(C)C6=O)c(O)cc(O)c3c(O)c2C(=O)C1C (centres undefined) | 0.289 µM (active) | 0.184 µM (active) | 0.0489 µM (active) | 0.101 µM (active) | 0.255 µM (active) | 0.109 µM (active) | 0.365 µM (active) | 0.0378 µM (active) | 0.0925 µM (active) | 0.183 µM (active) | 0.254 µM (active) | 0.0173 µM (active) | 0.55 µM (active) | 0.15 µM (active) | 0.122 µM (active) | 0.0607 µM (active) | 0.0252 µM (active) | 0.282 µM (active) | 0.136 µM (active) | 0.155 µM (active)
4 | CN1CC[C@]2(c3cccc(O)c3)CC(=O)/C(=C/c3ccccc3)[C@@H]1C2.[O-][Cl+3]([O-])([O-])O | 3.24 µM (inactive) | 2.09 µM (inactive) | 1.86 µM (inactive) | 2.95 µM (inactive) | 1.97 µM (inactive) | 2.04 µM (inactive) | 5.52 µM (inactive) | 2.31 µM (inactive) | 2.34 µM (inactive) | 2.25 µM (inactive) | 3.17 µM (inactive) | 1.49 µM (inactive) | 14.4 µM (inactive) | 1.95 µM (inactive) | 4.97 µM (inactive) | 3.61 µM (inactive) | 3.42 µM (inactive) | 3.88 µM (inactive) | 2.23 µM (inactive) | 6.98 µM (inactive)
5 | N=C(N)NS(=O)(=O)c1ccc(Nc2c3ccccc3nc3c(C(=O)NNCCO)cccc23)cc1 | 0.22 µM (active) | 0.284 µM (active) | 0.137 µM (active) | 0.156 µM (active) | 0.134 µM (active) | 0.184 µM (active) | 0.578 µM (active) | 0.156 µM (active) | 0.261 µM (active) | 0.565 µM (active) | 0.141 µM (active) | 0.186 µM (active) | 0.499 µM (active) | 0.303 µM (active) | 0.133 µM (active) | 0.141 µM (active) | 0.473 µM (active) | 0.193 µM (active) | 0.164 µM (active) | > 1 µM (active)
6 | Cc1cc(O)nc(NN2C(Cl)C(=O)C2c2ccccc2O)n1 (centres undefined) | 3.4 µM (inactive) | 5.26 µM (inactive) | 3.06 µM (inactive) | 1.61 µM (inactive) | 0.33 µM (active) | 0.585 µM (active) | 4.06 µM (inactive) | 2.14 µM (inactive) | 4.39 µM (inactive) | 1.44 µM (inactive) | 1.53 µM (inactive) | 3.03 µM (inactive) | 12.9 µM (inactive) | 4.54 µM (inactive) | 5.45 µM (inactive) | 4.32 µM (inactive) | 4.26 µM (inactive) | 1.76 µM (inactive) | 3.27 µM (inactive) | 12.2 µM (inactive)
7 | CN(C)CCCNC(=O)c1cc(NS(=O)(=O)c2ccc3c(c2)C(=O)c2ccccc2C3=O)cn1C | 19.2 µM (inactive) | 32.1 µM (inactive) | 14.8 µM (inactive) | 40.5 µM (inactive) | 13.5 µM (inactive) | 32.7 µM (inactive) | 40.3 µM (inactive) | 51.3 µM (inactive) | 24.8 µM (inactive) | 14.6 µM (inactive) | 29.5 µM (inactive) | 28 µM (inactive) | 35.6 µM (inactive) | 42.8 µM (inactive) | 24.1 µM (inactive) | 17.8 µM (inactive) | 35.9 µM (inactive) | 37.8 µM (inactive) | 46.3 µM (inactive) | 23.2 µM (inactive)
8 | COC(=O)c1cc(NC(=O)c2cc(NC(=O)c3cc([N+](=O)[O-])cn3C)cn2C)cn1C | – | 14.3 µM (inactive) | 29.4 µM (inactive) | 80.2 µM (inactive) | > 100 µM (inactive) | 29.8 µM (inactive) | > 100 µM (inactive) | 43.4 µM (inactive) | 35.6 µM (inactive) | 66.1 µM (inactive) | > 100 µM (inactive) | > 100 µM (inactive) | 81.1 µM (inactive) | > 100 µM (inactive) | 30.8 µM (inactive) | 64.1 µM (inactive) | > 100 µM (inactive) | > 100 µM (inactive) | > 100 µM (inactive) | > 100 µM (inactive)
9 | COC(=O)/C(C#N)=C/c1cc(C(C)(C)C)c(O)c(C(C)(C)C)c1 | 1.82 µM (inactive) | 0.662 µM (active) | 0.401 µM (active) | 1.73 µM (inactive) | 1.45 µM (inactive) | 2.2 µM (inactive) | 4.58 µM (inactive) | 2.66 µM (inactive) | 1.63 µM (inactive) | 2.77 µM (inactive) | 3.27 µM (inactive) | 3.41 µM (inactive) | 2.54 µM (inactive) | 3.27 µM (inactive) | 1.42 µM (inactive) | 2.62 µM (inactive) | 2.64 µM (inactive) | 3.15 µM (inactive) | 3.03 µM (inactive) | 1.77 µM (inactive)
10 | O=C1C=C(NCCc2ccc(O)cc2)C(=O)C=C1NCCc1ccc(O)cc1 | > 100 µM (inactive) | 71.1 µM (inactive) | > 100 µM (inactive) | > 100 µM (inactive) | > 100 µM (inactive) | 46.5 µM (inactive) | > 100 µM (inactive) | 50 µM (inactive) | 47.1 µM (inactive) | > 100 µM (inactive) | > 100 µM (inactive) | > 100 µM (inactive) | > 100 µM (inactive) | – | > 100 µM (inactive) | > 100 µM (inactive) | > 100 µM (inactive) | 64 µM (inactive) | > 100 µM (inactive) | > 100 µM (inactive)
11 | Clc1ccc2c(NC3CCC(N4CCCCC4)CC3)ccnc2c1 (centres undefined) | 14.3 µM (inactive) | 12.6 µM (inactive) | 18.1 µM (inactive) | 18.2 µM (inactive) | 20.8 µM (inactive) | 14.6 µM (inactive) | 27.4 µM (inactive) | 13.4 µM (inactive) | 16.9 µM (inactive) | 32.6 µM (inactive) | 35.8 µM (inactive) | 18.2 µM (inactive) | 30.7 µM (inactive) | 15.4 µM (inactive) | 52.5 µM (inactive) | 20.1 µM (inactive) | 31.8 µM (inactive) | 29.9 µM (inactive) | 27.7 µM (inactive) | 18.3 µM (inactive)
12 | CN1C(=O)C(O)CC1c1cccc(F)c1 (centres undefined) | > 100 µM (inactive) | > 100 µM (inactive) | > 100 µM (inactive) | > 100 µM (inactive) | > 100 µM (inactive) | > 100 µM (inactive) | > 100 µM (inactive) | > 100 µM (inactive) | > 100 µM (inactive) | > 100 µM (inactive) | – | > 100 µM (inactive) | > 100 µM (inactive) | > 100 µM (inactive) | > 100 µM (inactive) | > 100 µM (inactive) | > 100 µM (inactive) | > 100 µM (inactive) | > 100 µM (inactive) | > 100 µM (inactive)
13 | COc1ccc(/N=N/c2ccc3oc(=O)c(C(=O)Nc4ccccc4C)cc3c2)cc1 | > 10 µM (inactive) | > 10 µM (inactive) | > 10 µM (inactive) | > 10 µM (inactive) | > 10 µM (inactive) | > 10 µM (inactive) | > 10 µM (inactive) | – | > 10 µM (inactive) | 8.3 µM (inactive) | > 10 µM (inactive) | > 10 µM (inactive) | > 10 µM (inactive) | > 10 µM (inactive) | > 10 µM (inactive) | > 10 µM (inactive) | – | > 10 µM (inactive) | > 10 µM (inactive) | > 10 µM (inactive)
14 | Nc1nc(O)nc2c1ncn2C1OC(CO)C(O)C1O (centres undefined) | > 100 µM (inactive) | 57.1 µM (inactive) | 61.7 µM (inactive) | 64.4 µM (inactive) | 52.7 µM (inactive) | 26.1 µM (inactive) | 23.5 µM (inactive) | 45 µM (inactive) | 38 µM (inactive) | 78.9 µM (inactive) | > 100 µM (inactive) | 72.3 µM (inactive) | > 100 µM (inactive) | – | > 100 µM (inactive) | > 100 µM (inactive) | > 100 µM (inactive) | > 100 µM (inactive) | 50.7 µM (inactive) | > 100 µM (inactive)
